Laboratory results reported in patent US20240067657A1, “AMIDO-SUBSTITUTED PYRIDYL COMPOUNDS AND METHODS OF USE THEREOF FOR THE TREATMENT OF HERPESVIRUSES” (Merck Sharp & Dohme LLC, priority 2020, published 2024).
Like-named read-outs stand apart in the source and are kept apart here.

Columns and labels:
[1] = biological target: T1, Human cytomegalovirus DNA polymerase (Human cytomegalovirus, UniProt P08546); test: HCMV polymerase assay (AlphaLISA, IC50); assay type: biochemical; details: polymerase assay of Example 190
T1 construct: made in house; host or cells: SF21 insect cells (baculovirus vector)
Summary of the method: (§1)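 Baculovirus-expressed polymerase (HCMV 0.2 nM, VZV 0.4 nM final) preincubated 30 min at room temperature with compound in pH 7.5 HEPES buffer; reaction started with 1.6 nM DIG-primer/template and nM dNTPs including biotin-dUTP, run 60 min at 37° C. Incorporation detected by AlphaLISA; IC50 from 4-parameter fit.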

[2] = biological target: T2, varicella zoster virus DNA polymerase (Varicella-zoster virus, UniProt P09252); test: VZV polymerase assay (AlphaLISA, IC50); assay type: biochemical; details: polymerase assay of Example 190
T2 construct: made in house; host or cells: SF21 insect cells (baculovirus vector)
Summary of the method: as §1

[3] = test system: HCMV Strain AD169 in MRC-5 cells; test: Viral qPCR assay HCMV (V0/V1, V2/V3), EC50; assay type: cell-based; details: Human betaherpesvirus 5, AD169, MRC5, viral qPCR assay of Example 191; read-out: HCMV Cell (EC50)
Summary of the method: (§2)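 Infected cells added to compounds (10-point 3-fold series), ~72 h at 37 °C, then lysed; viral genomes by TaqMan qPCR against plasmid standard, normalized to PPIA in V0/V1 only, EC50 from 4-parameter fit. HCMV AD169, 0.05-0.1 pfu/cell, ± 50% FBS; VZV 0.04-0.1 pfu/cell; HSV-1 F 0.0005-0.004 pfu/cell.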

[4] = test system: VZV in MeWo or MRC5 cells; test: Viral qPCR assay VZV (V0/V1, V2/V3), EC50; assay type: cell-based; details: 10%
Summary of the method: as §2

[5] = test system: HSV-1 Strain F in Vero or MRC5 cells; test: Viral qPCR assay HSV-1 (V0/V1, V2/V3), EC50; assay type: cell-based; details: 10%
Summary of the method: as §2

[6] = Human alphaherpesvirus 3, MRC5, MRC5 cells, read-out: VZV Cell (EC50) MRC5 10%
[7] = Human alphaherpesvirus 1, MRC5, MRC5 cells, read-out: HSV1 Cell (EC50) MRC5 10%
[8] = Human alphaherpesvirus 3, MeWo, MEWO cells, read-out: VZV Cell (EC50) MEWO 10%
[9] = Human alphaherpesvirus 1, Vero, VERO cells, read-out: HSV1 Cell (EC50) VERO 10%

T1 sequence (P08546 whole entry): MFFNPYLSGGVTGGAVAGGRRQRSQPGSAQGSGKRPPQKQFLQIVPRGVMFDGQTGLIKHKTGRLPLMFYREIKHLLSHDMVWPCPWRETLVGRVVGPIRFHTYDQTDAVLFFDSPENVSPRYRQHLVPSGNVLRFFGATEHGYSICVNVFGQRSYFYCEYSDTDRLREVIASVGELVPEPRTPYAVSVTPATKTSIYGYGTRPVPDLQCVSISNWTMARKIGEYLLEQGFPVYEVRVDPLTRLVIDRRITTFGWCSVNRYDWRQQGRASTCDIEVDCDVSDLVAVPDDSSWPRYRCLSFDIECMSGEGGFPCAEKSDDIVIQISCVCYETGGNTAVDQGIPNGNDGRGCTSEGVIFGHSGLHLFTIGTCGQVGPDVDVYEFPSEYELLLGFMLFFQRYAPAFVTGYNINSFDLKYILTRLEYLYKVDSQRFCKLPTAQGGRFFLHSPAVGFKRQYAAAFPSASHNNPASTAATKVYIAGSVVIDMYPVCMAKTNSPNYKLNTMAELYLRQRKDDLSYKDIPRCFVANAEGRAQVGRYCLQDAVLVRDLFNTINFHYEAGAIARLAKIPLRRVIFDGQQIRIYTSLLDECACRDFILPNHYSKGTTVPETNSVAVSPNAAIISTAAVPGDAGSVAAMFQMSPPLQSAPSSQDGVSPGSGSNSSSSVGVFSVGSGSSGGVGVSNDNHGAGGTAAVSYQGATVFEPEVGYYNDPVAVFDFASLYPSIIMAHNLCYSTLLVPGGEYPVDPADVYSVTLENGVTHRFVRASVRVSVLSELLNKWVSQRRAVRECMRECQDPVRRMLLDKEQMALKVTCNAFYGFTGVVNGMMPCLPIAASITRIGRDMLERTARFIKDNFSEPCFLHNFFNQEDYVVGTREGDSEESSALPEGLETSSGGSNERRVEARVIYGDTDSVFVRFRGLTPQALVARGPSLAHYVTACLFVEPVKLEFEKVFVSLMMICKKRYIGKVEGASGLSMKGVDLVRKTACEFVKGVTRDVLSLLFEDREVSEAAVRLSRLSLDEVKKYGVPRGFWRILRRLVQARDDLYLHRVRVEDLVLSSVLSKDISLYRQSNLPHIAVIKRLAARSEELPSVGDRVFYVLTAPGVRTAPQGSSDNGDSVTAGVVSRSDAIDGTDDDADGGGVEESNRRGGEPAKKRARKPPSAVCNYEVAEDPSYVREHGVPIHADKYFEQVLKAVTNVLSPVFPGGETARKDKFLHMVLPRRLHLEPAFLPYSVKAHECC
T2 sequence (P09252 whole entry): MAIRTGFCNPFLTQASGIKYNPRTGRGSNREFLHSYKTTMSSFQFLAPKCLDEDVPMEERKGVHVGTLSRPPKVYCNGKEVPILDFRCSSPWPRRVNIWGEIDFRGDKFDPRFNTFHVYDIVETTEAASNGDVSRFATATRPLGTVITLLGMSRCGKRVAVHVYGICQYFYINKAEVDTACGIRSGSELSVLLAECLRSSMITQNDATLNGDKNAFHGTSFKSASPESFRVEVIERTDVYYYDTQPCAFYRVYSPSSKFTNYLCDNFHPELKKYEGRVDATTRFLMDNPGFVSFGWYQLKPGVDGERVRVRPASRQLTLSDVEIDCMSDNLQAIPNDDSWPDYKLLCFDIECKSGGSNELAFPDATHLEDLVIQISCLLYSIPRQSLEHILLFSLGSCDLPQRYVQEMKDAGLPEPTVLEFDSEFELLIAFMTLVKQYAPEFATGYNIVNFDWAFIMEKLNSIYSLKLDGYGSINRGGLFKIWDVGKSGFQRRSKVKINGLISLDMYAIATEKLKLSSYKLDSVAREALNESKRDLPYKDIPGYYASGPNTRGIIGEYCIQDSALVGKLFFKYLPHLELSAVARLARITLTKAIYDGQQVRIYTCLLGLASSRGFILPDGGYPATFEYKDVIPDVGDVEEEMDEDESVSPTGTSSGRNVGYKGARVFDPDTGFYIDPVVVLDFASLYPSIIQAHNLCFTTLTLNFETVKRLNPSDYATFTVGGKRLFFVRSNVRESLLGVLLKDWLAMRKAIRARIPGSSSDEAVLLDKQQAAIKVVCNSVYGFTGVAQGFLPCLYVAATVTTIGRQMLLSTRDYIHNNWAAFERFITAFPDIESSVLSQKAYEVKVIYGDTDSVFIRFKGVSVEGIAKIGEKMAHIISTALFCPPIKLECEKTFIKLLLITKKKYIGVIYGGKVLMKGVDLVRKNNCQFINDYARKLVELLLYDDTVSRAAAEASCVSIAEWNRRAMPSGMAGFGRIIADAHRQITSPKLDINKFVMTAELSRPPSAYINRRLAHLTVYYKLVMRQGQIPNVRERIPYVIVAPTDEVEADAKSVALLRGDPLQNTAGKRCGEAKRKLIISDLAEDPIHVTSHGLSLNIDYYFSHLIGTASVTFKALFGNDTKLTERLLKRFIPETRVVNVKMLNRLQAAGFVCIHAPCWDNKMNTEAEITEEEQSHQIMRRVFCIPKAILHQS

SMILES	IC50 [1] [nM]	IC50 [2] [nM]	EC50 [3] [nM]	EC50 [4, 6] [nM]	EC50 [5, 7] [nM]	EC50 [4, 8] [nM]	EC50 [5, 9] [nM]
O=C(NCc1ccc(Cl)cc1)c1cc(O[C@H]2CCN3C(=O)OC[C@@H]3C2)c(-c2cnc(C3CC3)o2)cn1 [Compound 33]	6.24	2.72	121	194	125	–	–
O=C(NCc1ccc(Cl)cc1)c1cc(O[C@H]2CCN3C(=O)OC[C@@H]3C2)c(-c2cnn(CCO)c2)cn1 [Compound 34]	6.9	4.77	71.3	–	412	190	1240
CC(C)(O)Cn1cc(-c2cnc(C(=O)NCc3ccc(Cl)cc3)cc2O[C@H]2CCN3C(=O)OC[C@@H]3C2)cn1 [Compound 35]	8.15	7.5	396	440	205	–	1000
O=C(NCc1ccc(Cl)cc1)c1cc(O[C@H]2CCN3C(=O)OC[C@@H]3C2)c(-c2cnn(C3COC3)c2)cn1 [Compound 36]	4.44	2.47	172	175	146	–	432
O=C(NCc1ccc(Cl)cc1)c1cc(O[C@H]2CCN3C(=O)OC[C@@H]3C2)c(-c2cscn2)cn1 [Compound 37]	15.9	6.03	115	130	100	20.8	35.6
Cn1cnc(-c2cnc(C(=O)NCc3ccc(Cl)cc3)cc2O[C@H]2CCN3C(=O)OC[C@@H]3C2)c1 [Compound 38]	11.6	6.53	72.8	–	≥ 80200	53.2	194
Cc1nsc(-c2cnc(C(=O)NCc3ccc(Cl)cc3)cc2O[C@H]2CCN3C(=O)OC[C@@H]3C2)n1 [Compound 39]	10.3	1.25	86.7	98	60.1	–	–
O=C(NCc1ccc(Cl)cc1)c1cc(O[C@H]2CCN3C(=O)OC[C@@H]3C2)c(-c2nccs2)cn1 [Compound 40]	10.4	9.39	55.7	–	–	16.7	30.8
Cc1cnc(-c2cnc(C(=O)NCc3ccc(Cl)cc3)cc2O[C@H]2CCN3C(=O)OC[C@@H]3C2)s1 [Compound 41]	5	3.88	89.9	97.4	39	70.8	12.2
Cc1ncc(-c2cnc(C(=O)NCc3ccc(Cl)cc3)cc2O[C@H]2CCN3C(=O)OC[C@@H]3C2)s1 [Compound 42]	5.3	3.76	58.9	79.9	51.7	48.5	40.8
CC(=O)N1CCC(Oc2cc(C(=O)NCc3ccc(Cl)cc3)ncc2-c2cnc(C)s2)CC1 [Compound 43]	24.9	14.6	179	140	106	–	–
CC(=O)N1CCC(Oc2cc(C(=O)NCc3ccc(Cl)cc3)ncc2-c2cc(C)ns2)CC1 [Compound 44]	26.2	1.98	182	120	154	–	–
COc1cc(-c2cnc(C(=O)NCc3ccc(Cl)cc3)cc2OC2CCN(C(C)=O)CC2)sn1 [Compound 45]	28.9	3.37	455	128	135	–	–
CC(=O)N1CCC(Oc2cc(C(=O)NCc3ccc(Cl)cc3)ncc2-c2ccns2)CC1 [Compound 46]	20.8	3.98	148	113	92.1	–	–
CC(=O)N1CCC(Oc2cc(C(=O)NCc3ccc(Cl)cc3)ncc2-c2cn(C)c(C)n2)CC1 [Compound 48]	31.9	29.4	373	294	190	–	–
CC(=O)N1CCC(Oc2cc(C(=O)NCc3ccc(Cl)cc3)ncc2-c2nc(C)ns2)CC1 [Compound 49]	36.3	17.6	155	794	510	–	–
CC(=O)N1CCC(Oc2cc(C(=O)NCc3ccc(Cl)cc3)ncc2-c2nnc(C)s2)CC1 [Compound 54]	61.6	14.9	768	181	241	–	–
CC(=O)N1CCC(Oc2cc(C(=O)NCc3ccc(Cl)cc3)ncc2-c2nnc(C3CC3)s2)CC1 [Compound 57]	86.9	12.7	133	203	110	–	–

SMILES	IC50 [1] [nM]	IC50 [2] [nM]	EC50 [3] [nM]	EC50 [4, 6] [nM]	EC50 [5, 7] [nM]	EC50 [4, 8] [nM]	EC50 [5, 9] [nM]
CC(=O)N1CCC(Oc2cc(C(=O)NCc3ccc(Cl)cc3)ncc2-c2ccn(C)n2)CC1 [Compound 61]	238	181	484	–	–	81.6	108
CC(=O)N1CCC(Oc2cc(C(=O)NCc3ccc(Cl)cc3)ncc2-c2cnn(CCO)c2)CC1 [Compound 62]	222	67.5	1580	–	–	162	4880
CC(=O)N1CCC(Oc2cc(C(=O)NCc3ccc(Cl)cc3)ncc2-c2ncc(C)s2)CC1 [Compound 63]	13.5	11.1	246	215	310	–	34.2
CC(=O)N1CCC(Oc2cc(C(=O)NCc3ccc(Cl)cc3)ncc2-c2cc[nH]n2)CC1 [Compound 64]	164	65.3	1020	–	–	440	1170
CC(=O)N1CCC(Oc2cc(C(=O)NCc3ccc(Cl)cc3)ncc2-c2cnco2)CC1 [Compound 65]	35.5	11.8	769	721	288	–	–
CC(=O)N1CCC(Oc2cc(C(=O)NCc3ccc(Cl)cc3)ncc2-c2cnc(C)o2)CC1 [Compound 66]	47.4	18.6	250	288	242	–	–
CC(=O)N1CCC(Oc2cc(C(=O)NCc3ccc(Cl)cc3)ncc2-c2cnc(C3CC3)o2)CC1 [Compound 67]	50.7	21.7	612	706	660	–	–
Cc1cnc(C(=O)NCc2ccc(Cl)cc2)cc1O[C@H]1CCN2C(=O)OC[C@@H]2C1 [Compound 68]	51.4	38.7	603	1080	689	126	270
CC(=O)N1CCC(Oc2cc(C(=O)NCc3ccc(Cl)cc3)ncc2-c2cn[nH]c2)CC1 [Compound 69]	109	32.5	678	–	–	351	1110
CC(=O)N1CCC(Oc2cc(C(=O)NCc3ccc(Cl)cc3)ncc2-c2cnn(C(F)F)c2)CC1 [Compound 70]	117	27.8	1220	–	–	298	430
CC(=O)N1CCC(Oc2cc(C(=O)NCc3ccc(Cl)cc3)ncc2/C=C\c2ccccn2)CC1 [Compound 77]	103	37.2	825	–	–	230	122
O=C(NCc1ccc(Cl)cc1)c1cc(O[C@H]2CCN3C(=O)OC[C@@H]3C2)c(CN2CCOCC2)cn1 [Compound 78]	83.2	31.7	446	–	–	642	560
O=C(NCc1ccc(Cl)c(F)c1)c1cc(O[C@H]2CCN3C(=O)OC[C@@H]3C2)c(-c2cnn(C(F)F)c2)cn1 [Compound 79]	6.9	5.19	103	209	219	–	196
C[C@H](NC(=O)c1cc(O[C@H]2CCN3C(=O)OC[C@@H]3C2)c(-c2cnn(C(F)F)c2)cn1)c1ccc(Cl)cc1 [Compound 81]	14.3	11.9	312	307	153	–	–
O=C(NCc1ccc([N+](=O)[O-])cc1)c1cc(O[C@H]2CCN3C(=O)OC[C@@H]3C2)c(-c2cnn(C(F)F)c2)cn1 [Compound 82]	16	9.02	90.5	243	125	–	–
N#Cc1ccc(CNC(=O)c2cc(O[C@H]3CCN4C(=O)OC[C@@H]4C3)c(-c3cnn(C(F)F)c3)cn2)c(F)c1 [Compound 84]	25.9	26.7	350	345	463	66.8	520
O=C(NCc1ccc(Cl)nc1)c1cc(O[C@H]2CCN3C(=O)OC[C@@H]3C2)c(-c2cnn(C(F)F)c2)cn1 [Compound 86]	189	20.6	754	–	–	825	1450
